Results reported in patent US7977284B2, “Non-estrogenic alkylphenol derivatives” (Oil Chem Technologies, Inc, priority 2009, dated 2011).

Legend:
estrogenicity = details: Jobling and Sumpter 1993; cited from earlier work
[1] = test system: vitellogenin gene expression in trout hepatocytes; test: Relative estrogenicity compared to estradiol; standard test procedure and stimulation of vitellogenin gene expression in trout hepatocytes; details: for Relative Estrogenicity: compared to estradiol, assigned an estrogenicity value of unity; for estrogenicity (result in words): standard test procedure, vitellogenin gene expression in trout hepatocytes

Row | Compound | times less estrogenic compared to Estradiol (estrogenicity) | Relative Estrogenicity [1] | estrogenicity (result in words) [1]
1 | CC(C)(C)c1ccc(O)cc1 [4-t-butylphenol] | 1,100 times | – | –
2 | CC(C)(C)CC(C)(C)c1ccc(O)cc1 [4-t-octylphenol] | 1,200 times | 0.00037 | relatively high estrogenicity
3 | C[C@]12CC[C@@H]3c4ccc(O)cc4CC[C@H]3[C@@H]1CC[C@@H]2O [Estradiol] | – | 1 | –
4 | nonylphenol | 9,000 times | 0.000111 | relatively high estrogenicity
